Assay results taken from ChEMBL document CHEMBL1201862, “PubChem BioAssay data set” (2004).
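Following 48 hours of exposure in 96-well plates, responses at five concentrations were used to interpolate endpoints linearly. The concentration for 50% growth inhibition is given as GI50.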 Active and inactive are the calls of the source. Rule as the data show it: active = GI50 up to about 1.1 µM and inactive = higher.

Legend:
Assay in all cases: NCI tumour cell line growth inhibition, 48 h
[1] = test system: CCRF-CEM
[2] = test system: UACC-62
[3] = test system: HOP-92
[4] = test system: MOLT-4
[5] = test system: BT-549
[6] = test system: RPMI-8226
[7] = test system: SF-295
[8] = test system: NCI-H460
[9] = test system: SK-MEL-5
[10] = test system: PC-3
[11] = test system: HL-60
[12] = test system: SNB-75
[13] = test system: A498
[14] = test system: Malme-3M
[15] = test system: CAKI-1
[16] = test system: MDA-MB-435
[17] = test system: NCI-H23
[18] = test system: SF-539
[19] = test system: A549
[20] = test system: SW-620

| SMILES | GI50 [1] | GI50 [2] | GI50 [3] | GI50 [4] | GI50 [5] | GI50 [6] | GI50 [7] | GI50 [8] | GI50 [9] | GI50 [10] | GI50 [11] | GI50 [12] | GI50 [13] | GI50 [14] | GI50 [15] | GI50 [16] | GI50 [17] | GI50 [18] | GI50 [19] | GI50 [20] |
| --- | --- | --- | --- | --- | --- | --- | --- | --- | --- | --- | --- | --- | --- | --- | --- | --- | --- | --- | --- | --- |
| CO/C(=N\N=C(/c1ccccc1)C(F)(F)F)c1ccncc1 | 17.4 µM (inactive) | 27.5 µM (inactive) | 53.2 µM (inactive) | 19.1 µM (inactive) | 31.8 µM (inactive) | 27.6 µM (inactive) | 48.6 µM (inactive) | 35.8 µM (inactive) | 21.8 µM (inactive) | 26.1 µM (inactive) | > 100 µM (inactive) | 34.9 µM (inactive) | 87.5 µM (inactive) | 72.8 µM (inactive) | 45 µM (inactive) | 18.8 µM (inactive) | 36.2 µM (inactive) |  |  |  |
| COC(=O)CCc1cc(OC)c(O)c(C(Cc2ccc(OC)c(OC)c2)C(=O)OC)c1 (stereo not drawn) | > 100 µM (inactive) | > 100 µM (inactive) | > 100 µM (inactive) | > 100 µM (inactive) | > 100 µM (inactive) | > 100 µM (inactive) | > 100 µM (inactive) | > 100 µM (inactive) | > 100 µM (inactive) | > 100 µM (inactive) | > 100 µM (inactive) | > 100 µM (inactive) | > 100 µM (inactive) | > 100 µM (inactive) |  | > 100 µM (inactive) | > 100 µM (inactive) | > 100 µM (inactive) | > 100 µM (inactive) | > 100 µM (inactive) |
| CO/C=C(/C(=O)OC)c1ccccc1[C@H]1C[C@@H]1c1ccc(OC)cc1 | 25.4 µM (inactive) | 23.1 µM (inactive) | 9.33 µM (inactive) | 17.1 µM (inactive) | 17.7 µM (inactive) | 18.2 µM (inactive) | 17.2 µM (inactive) | 21.9 µM (inactive) | 12.4 µM (inactive) | 22.1 µM (inactive) | 25.2 µM (inactive) |  | 28.1 µM (inactive) | 15.6 µM (inactive) | 17.9 µM (inactive) | 7.76 µM (inactive) | 27.9 µM (inactive) | 17 µM (inactive) | 20.8 µM (inactive) |  |
| CC(=O)C1(c2ccccc2)CCCN(C)CC1 (stereo not drawn) | > 100 µM (inactive) | > 100 µM (inactive) | > 100 µM (inactive) | > 100 µM (inactive) | > 100 µM (inactive) | > 100 µM (inactive) | > 100 µM (inactive) | > 100 µM (inactive) | > 100 µM (inactive) | > 100 µM (inactive) |  | > 100 µM (inactive) | > 100 µM (inactive) | > 100 µM (inactive) | > 100 µM (inactive) | > 100 µM (inactive) | > 100 µM (inactive) |  |  | > 100 µM (inactive) |
| C=CCCCC1CCCNC1=S (stereo not drawn) |  | > 100 µM (inactive) | > 100 µM (inactive) | > 100 µM (inactive) | > 100 µM (inactive) | > 100 µM (inactive) | > 100 µM (inactive) | > 100 µM (inactive) | > 100 µM (inactive) | > 100 µM (inactive) |  | > 100 µM (inactive) | > 100 µM (inactive) |  | > 100 µM (inactive) | > 100 µM (inactive) | > 100 µM (inactive) | > 100 µM (inactive) | > 100 µM (inactive) | > 100 µM (inactive) |
| O=C(CC(=O)N1N=C(N2CCCCC2)CC1c1ccccc1)Nc1ccc(Cl)cc1 (stereo not drawn) | > 100 µM (inactive) | > 100 µM (inactive) | > 100 µM (inactive) | > 100 µM (inactive) | > 100 µM (inactive) |  | > 100 µM (inactive) | > 100 µM (inactive) | > 100 µM (inactive) | > 100 µM (inactive) | > 100 µM (inactive) | > 100 µM (inactive) | > 100 µM (inactive) | > 100 µM (inactive) | > 100 µM (inactive) | > 100 µM (inactive) | > 100 µM (inactive) |  | > 100 µM (inactive) | > 100 µM (inactive) |
| COc1ccccc1N1CCN(CCCN2C(C(=O)c3ccccc3)=C(O)c3c(C)cc(C)nc3S2(=O)=O)CC1 | 52.5 µM (inactive) | > 100 µM (inactive) | 22.6 µM (inactive) | 24.8 µM (inactive) | > 100 µM (inactive) |  | 35.7 µM (inactive) | 52.8 µM (inactive) | 51.9 µM (inactive) | > 100 µM (inactive) | 79.4 µM (inactive) | 5.87 µM (inactive) | > 100 µM (inactive) | > 100 µM (inactive) | 79.6 µM (inactive) | > 100 µM (inactive) | > 100 µM (inactive) | > 100 µM (inactive) | 47.2 µM (inactive) | 89.7 µM (inactive) |
| N#CCCN(CCNc1ccccc1)C(=O)Nc1ccc(NC(=O)N(CCC#N)CCNc2ccccc2)cc1 |  | > 100 µM (inactive) | > 45.9 µM (inactive) | > 100 µM (inactive) | > 38.5 µM (inactive) | > 100 µM (inactive) | > 74.6 µM (inactive) | > 67.6 µM (inactive) | > 100 µM (inactive) | > 93.1 µM (inactive) |  | 26.2 µM (inactive) | > 100 µM (inactive) | > 100 µM (inactive) | > 100 µM (inactive) | > 100 µM (inactive) | > 68.4 µM (inactive) | > 100 µM (inactive) | > 100 µM (inactive) | > 100 µM (inactive) |
| OC1CN2CCS[C@H]2C(O)C1O (stereo partly drawn) | > 100 µM (inactive) | > 100 µM (inactive) | > 100 µM (inactive) | > 100 µM (inactive) | > 100 µM (inactive) | > 100 µM (inactive) | > 100 µM (inactive) | > 100 µM (inactive) | > 100 µM (inactive) | > 100 µM (inactive) | > 100 µM (inactive) | > 100 µM (inactive) | > 100 µM (inactive) | > 100 µM (inactive) | > 100 µM (inactive) | > 100 µM (inactive) | > 100 µM (inactive) |  | > 100 µM (inactive) | > 100 µM (inactive) |
| CO/C(C)=N/CCC1=CCCCC1 |  | > 100 µM (inactive) | > 100 µM (inactive) | > 100 µM (inactive) | > 100 µM (inactive) | > 100 µM (inactive) | 55.5 µM (inactive) | > 100 µM (inactive) | > 100 µM (inactive) | > 100 µM (inactive) |  | > 100 µM (inactive) | > 100 µM (inactive) | > 100 µM (inactive) | > 100 µM (inactive) | > 100 µM (inactive) | > 100 µM (inactive) |  | > 100 µM (inactive) | > 100 µM (inactive) |
| CCC(C#N)NCc1cccc(CNC(C#N)CC)c1 (stereo not drawn) | > 100 µM (inactive) | > 100 µM (inactive) | > 100 µM (inactive) | > 100 µM (inactive) | > 100 µM (inactive) |  | 19.5 µM (inactive) | > 100 µM (inactive) | > 100 µM (inactive) | > 100 µM (inactive) | > 100 µM (inactive) |  | > 100 µM (inactive) | > 100 µM (inactive) | > 100 µM (inactive) | > 100 µM (inactive) | > 100 µM (inactive) | > 100 µM (inactive) | > 100 µM (inactive) | > 100 µM (inactive) |
| CCOC(=O)c1sc2nc(SC)nc3c2c1NC(=O)CN3c1ccc(F)cc1 | 30.1 µM (inactive) | 47 µM (inactive) | 31.8 µM (inactive) | > 100 µM (inactive) | 19.5 µM (inactive) | 65.9 µM (inactive) | 20.1 µM (inactive) | > 100 µM (inactive) | 46.3 µM (inactive) | 16.6 µM (inactive) | 98.6 µM (inactive) |  | 47.6 µM (inactive) | 48.4 µM (inactive) | > 100 µM (inactive) | 32.3 µM (inactive) | 50.6 µM (inactive) | 15.9 µM (inactive) | 18.6 µM (inactive) | 38.5 µM (inactive) |
| NCCN1C(=O)c2ccccc2C1c1ccc(Cl)cc1 (stereo not drawn) | > 100 µM (inactive) | > 100 µM (inactive) | > 100 µM (inactive) | > 100 µM (inactive) | > 100 µM (inactive) | > 100 µM (inactive) | > 100 µM (inactive) | > 100 µM (inactive) | > 100 µM (inactive) | 92.3 µM (inactive) | > 100 µM (inactive) | > 100 µM (inactive) | > 100 µM (inactive) |  | > 100 µM (inactive) | > 100 µM (inactive) | > 100 µM (inactive) | > 100 µM (inactive) | > 100 µM (inactive) | > 100 µM (inactive) |
| CNC(=O)OCC1C2=C(C(=O)C(C)=C(N)C2=O)N2CC3C(N3C)C12OC (stereo not drawn) | 3.76 µM (inactive) | 9.93 µM (inactive) | 23.7 µM (inactive) | 3.29 µM (inactive) | 31.8 µM (inactive) | 23.8 µM (inactive) | 5.02 µM (inactive) | 0.0867 µM (active) | 11.5 µM (inactive) | 13.9 µM (inactive) | 1.92 µM (inactive) |  | 15.3 µM (inactive) | 2.38 µM (inactive) | 3.16 µM (inactive) | 38.1 µM (inactive) | 1.53 µM (inactive) | 10.1 µM (inactive) | 1.83 µM (inactive) | 10.8 µM (inactive) |
| Cc1occc1/C(S)=N\c1ccc(Cl)c(COC(C)(C)C)c1 | 23.9 µM (inactive) | 14.6 µM (inactive) | 15.7 µM (inactive) | 14.4 µM (inactive) | 17.6 µM (inactive) | 14.2 µM (inactive) | 14.8 µM (inactive) | 17.2 µM (inactive) | 16.2 µM (inactive) | 14.5 µM (inactive) | 19.4 µM (inactive) |  | 17.8 µM (inactive) | 16.5 µM (inactive) | 17.8 µM (inactive) | 16.7 µM (inactive) | 16.4 µM (inactive) | 16.8 µM (inactive) | 19.3 µM (inactive) | 17.5 µM (inactive) |
